≈ marks a conversion by molar mass, not a printed value. Read-outs that look alike come from different tables or passages of the source.
Tests used:
L. major amastigotes = assay: Apoptotic profile by flow cytometry (PE-Annexin V / 7-AAD); format: cell-based, Leishmania major; conditions: 100 μg/mL, vs negative control P < 0.001
Method: Apoptosis in L. major amastigotes was evaluated using flow cytometry with the BD Annexin V/PE Apoptosis Detection Kit (Fisher Scientific). […] After treatment, the parasites were washed with PBS and incubated in the dark at 25 °C with 5 μL of PE-Annexin V and 7 μL of 7-AAD for 15 min. The proportion of apoptotic parasites was then evaluated using FlowJo software.

[1] = system: L. major intramacrophage amastigotes; assay: Anti-amastigote activity: counting Leishman bodies in 100 Giemsa-stained macrophages; format: cell-based, Leishmania major; conditions: for IC50: Leishmania major, Macrophage
Method: To assess the leishmanicidal effect on L. major intramacrophage amastigotes, macrophages (10⁷ cells) were cultured for 24 h. Subsequently, 200 μL of metacyclic promastigotes were introduced to the macrophages at a 10:1 ratio. […] The cells were washed with 50 μL PBS to eliminate free parasites, fixed with methanol, and stained using Giemsa. The IC₅₀, defined as the concentration required to inhibit 50 % of the leishmanial organisms, was determined by counting Leishman bodies (amastigotes) in 100 macrophages under an optical microscope. All experiments were performed in triplicate.
To evaluate the leishmanicidal effects on L. major intramacrophage amastigotes, macrophages (1 × 10⁷ cells) were cultured for 24 h. Following this, 200 μL of metacyclic promastigotes were added to the macrophages at a 10:1 ratio. […] The cells were then washed with 50 μL PBS to remove any free parasites, fixed in methanol, and stained with Giemsa. The IC₅₀, or the concentration that inhibits 50 % of the leishmanial organisms, was assessed by counting Leishman bodies (amastigotes) in 100 macrophages under an optical microscope. Each experiment was conducted in triplicate, including negative controls (macrophages and parasites without treatment) and positive controls (macrophages and parasites treated with a known effective drug) for comparison.

L. major promastigotes = assay: Anti-promastigote activity (MTT, IC50); format: cell-based, Leishmania major; conditions: for IC50: Leishmania major
Method: (§1) To assess the impact of the D. lindbergii fraction on L. major promastigotes, amastigotes, and macrophages, cell viability was determined using the 3-(4,5-dimethylthiazol-2-yl)-2,5-diphenyl tetrazolium bromide (MTT). L. major in the logarithmic growth phase (1 × 10⁶) was plated in a 96-well microplate using RPMI-1640 medium supplemented with 10 % FBS and treated with different concentrations of the samples. The plates were then incubated. Subsequently, 10 μL of MTT (Sigma Chemical Co., St. Louis, MO) at a concentration of 5 mg/mL was added to each well. After incubation, DMSO was added to stop the reactions, and the optical density (OD) absorbance of the samples was measured at 570 nm using an ELISA plate reader (BioTek Company, USA). The results were analyzed by calculating the inhibition percentage through linear regression.
Drug susceptibility assays were conducted using promastigotes in the logarithmic growth phase. A volume of 90 μL of cultured L. major promastigotes (1 × 10⁶ cells/mL) was transferred to each well of a 96-well microplate. […] The reactions were stopped, ELISA readings were taken, and the IC₅₀ (50 % inhibitory concentration) was calculated according to established protocols.

[2] = system: macrophage cell line (THP-1); assay: Toxicity on macrophages (MTT, CC50); format: cell-based
Method: (§2) The promastigote form of L. major (MRHO/IR/75/ER), the national standard isolate, was obtained from the Pasteur Institute of Iran and cultured at 25 °C in RPMI-1640 medium containing 10 % heat-inactivated FBS and 1 % penicillin/streptomycin. The THP-1 macrophage cell line, provided by the Kerman Leishmaniasis Research Center, was grown in Dulbecco's Modified Eagle Medium (DMEM) supplemented with 10 % FBS and 0.5 % antibiotics (Sigma, Poole, UK), and incubated at 37 °C with 5 % CO₂ [21].
as §1

[3] = Toxicity on macrophages (MTT, CC50); format: cell-based; conditions: human, THP-1 macrophage cell line
Method: as §2, §1

[4] = DPPH radical-scavenging antioxidant assay; conditions: DPPH method, 517 nm
Method: The scavenging effect on 2,2-diphenyl-1-picrylhydrazyl (DPPH) free radicals was determined based on the reduction of DPPH as a stable free radical. The optical densities were measured at a wavelength of 517 nm. The elimination of free radicals was calculated using the following formula:= (absorbance of control-absorbance of the sample) / (absorbance of control) × 100.

L. major = system: L. major; set-up: method as in PMID 33531168; conditions: after 16 h of incubation; control 14 %; cited from earlier work

| Compound | induction of apoptosis in intra-macrophage amastigotes (L. major amastigotes) | average number of intramacrophage amastigotes (Mean ± SD) ([1]; 24 h, 12.5 μg/mL) | average number of intramacrophage amastigotes (Mean ± SD) ([1]; 24 h, 25 μg/mL) | average number of intramacrophage amastigotes (Mean ± SD) ([1]; 24 h, 50 μg/mL) | average number of intramacrophage amastigotes (Mean ± SD) ([1]; 24 h, 100 μg/mL) | average number of intramacrophage amastigotes (Mean ± SD) ([1]; 24 h, 200 μg/mL) | average number of intramacrophage amastigotes (Mean ± SD) ([1]; 24 h, 400 μg/mL) | average number of intramacrophage amastigotes (Mean ± SD) ([1]; 48 h, 12.5 μg/mL) | average number of intramacrophage amastigotes (Mean ± SD) ([1]; 48 h, 25 μg/mL) | average number of intramacrophage amastigotes (Mean ± SD) ([1]; 48 h, 50 μg/mL) | average number of intramacrophage amastigotes (Mean ± SD) ([1]; 48 h, 100 μg/mL) | average number of intramacrophage amastigotes (Mean ± SD) ([1]; 48 h, 200 μg/mL) | average number of intramacrophage amastigotes (Mean ± SD) ([1]; 48 h, 400 μg/mL) | average number of intramacrophage amastigotes (Mean ± SD) ([1]; 72 h, 12.5 μg/mL) | average number of intramacrophage amastigotes (Mean ± SD) ([1]; 72 h, 25 μg/mL) | average number of intramacrophage amastigotes (Mean ± SD) ([1]; 72 h, 50 μg/mL) | average number of intramacrophage amastigotes (Mean ± SD) ([1]; 72 h, 100 μg/mL) | average number of intramacrophage amastigotes (Mean ± SD) ([1]; 72 h, 200 μg/mL) | average number of intramacrophage amastigotes (Mean ± SD) ([1]; 72 h, 400 μg/mL) | further results |
| --- | --- | --- | --- | --- | --- | --- | --- | --- | --- | --- | --- | --- | --- | --- | --- | --- | --- | --- | --- | --- |
| C[C@@H]1[C@H](O)[C@@H](C)/C=C/C=C/C=C/C=C/C=C/C=C/C=C/[C@H](O[C@@H]2O[C@H](C)[C@@H](O)[C@H](N)[C@@H]2O)C[C@@H]2O[C@](O)(C[C@@H](O)C[C@@H](O)[C@H](O)CC[C@@H](O)C[C@@H](O)CC(=O)O[C@H]1C)C[C@H](O)[C@H]2C(=O)O [Amphotericin B] | significant induction of apoptosis | 34.2 ± 3.6 | 25.3 ± 4.2 | 20.4 ± 1.8 | 13.6 ± 2.6 | 3.6 ± 0.4 | 0.0 ± 0.0 | 41.4 ± 3.0 | 30.1 ± 2.2 | 21.6 ± 2.4 | 10.1 ± 1.9 | 2.6 ± 0.3 | 0.0 ± 0.0 | 50.4 ± 4.8 | 42.3 ± 5.2 | 33.4 ± 3.0 | 20.4 ± 2.4 | 10.3 ± 0.8 | 0.0 ± 0.0 | IC50 ([1]; 24 h, read-out: Amastigote (24 h) IC50 ± SD): 134 ± 18.6 µg/mL (≈ 145 µM); IC50 ([1]; 48 h, read-out: Amastigote (48h) IC50 ± SD): 129 ± 14.2 µg/mL (≈ 139 µM); IC50 ([1]; 72 h, read-out: Amastigote (72h) IC50 ± SD): 101 ± 18.3 µg/mL (≈ 110 µM); IC50 (L. major promastigotes; 24 h, read-out: Promastigote (24 h) IC50 ± SD): 308 ± 22 µg/mL (≈ 333 µM); IC50 (L. major promastigotes; 48 h, read-out: Promastigote (48h) IC50 ± SD): 294 ± 15.3 µg/mL (≈ 318 µM); IC50 (L. major promastigotes; 72 h, read-out: Promastigote (72h) IC50 ± SD): 264 ± 20.7 µg/mL (≈ 285 µM); SI= CC50 Macrophages/IC50 Amastigotes (Selectivity Index) ([2]; 24 h): 5.93; SI = CC50Macrophages/IC50Amastigotes (Selectivity Index) ([2]; 72 h): 7.40; CC50 at 24 h ([3]; 24 h): 792 ± 28.6 µg/mL (≈ 857 µM); CC50 at 48 h ([3]; 48 h): 772 ± 24.6 µg/mL (≈ 836 µM); CC50 at 72 h ([3]; 72 h): 749 ± 18.6 µg/mL (≈ 810 µM) |
| COc1ccc(O)c(C(C)(C)C)c1 [BHA, butylated hydroxyanisole] | – | – | – | – | – | – | – | – | – | – | – | – | – | – | – | – | – | – | – | IC50 of DPPH radical scavenging [4]: 249.3 µg/mL |
| COc1cc(/C=C/C(=O)CC(=O)/C=C/c2ccc(O)c(OC)c2)ccc1O [curcumin] | – | – | – | – | – | – | – | – | – | – | – | – | – | – | – | – | – | – | – | maximum accumulation of S-phase cells (L. major): about 33% |
| meglumine antimoniate [MAT] | significant induction of apoptosis | 31.1 ± 4.2 | 22.3 ± 3.1 | 18.6 ± 2.5 | 11.4 ± 2.2 | 2.1 ± 0.1 | 0.0 ± 0.0 | 39.6 ± 1.1 | 27.6 ± 1.8 | 18.4 ± 2.0 | 8.6 ± 0.9 | 2.2 ± 0.4 | 0.0 ± 0.0 | 49.3 ± 5.7 | 40.3 ± 6.4 | 31.2 ± 4.1 | 18.4 ± 2.5 | 8.6 ± 0.2 | 0.0 ± 0.0 | Amastigote (24 h) IC50 ± SD ([1]; 24 h): 127.3 ± 14.9; Amastigote (48h) IC50 ± SD ([1]; 48 h): 112.6 ± 9.5; Amastigote (72h) IC50 ± SD ([1]; 72 h): 93.6 ± 15.2; Promastigote (24 h) IC50 ± SD (L. major promastigotes; 24 h): 301.8 ± 24.3; Promastigote (48h) IC50 ± SD (L. major promastigotes; 48 h): 286.2 ± 17.3; Promastigote (72h) IC50 ± SD (L. major promastigotes; 72 h): 251.6 ± 28.4 |
